Key:
Assay in all cases: MBC (minimum bactericidal concentration) test in Wash NEXT reagent
Format in all cases: cell-based
[1] = test system: Pseudomonas aeruginosa (L)
[2] = test system: Pseudomonas fluorescens (D)
[3] = test system: Pseudomonas aeruginosa (AY)

Cc1cc(NS(=O)(=O)c2ccc(N)cc2)no1 [Sulfamethoxazole, sulfamethoxazole]
MBC test growth score ([1]; 10% preservative, 8 hour): + | MBC test growth score ([1]; 10% preservative, 24 hour): + | MBC test growth score ([1]; 10% preservative, 48 hour): + | MBC test growth score ([1]; 10% preservative, 72 hour): + | MBC test growth score ([1]; 20% preservative, 8 hour): + | MBC test growth score ([1]; 20% preservative, 24 hour): + | MBC test growth score ([1]; 20% preservative, 48 hour): + | MBC test growth score ([1]; 20% preservative, 72 hour): + | MBC test growth score ([1]; 30% preservative, 8 hour): + | MBC test growth score ([1]; 30% preservative, 24 hour): + | MBC test growth score ([1]; 30% preservative, 48 hour): + | MBC test growth score ([1]; 30% preservative, 72 hour): + | MBC test growth score ([1]; 40% preservative, 8 hour): + | MBC test growth score ([1]; 40% preservative, 24 hour): + | MBC test growth score ([1]; 40% preservative, 48 hour): + | MBC test growth score ([1]; 40% preservative, 72 hour): + | MBC test growth score ([1]; 50% preservative, 8 hour): + | MBC test growth score ([1]; 50% preservative, 24 hour): + | MBC test growth score ([1]; 50% preservative, 48 hour): + | MBC test growth score ([1]; 50% preservative, 72 hour): + | MBC test growth score ([1]; 60% preservative, 8 hour): + | MBC test growth score ([1]; 60% preservative, 24 hour): + | MBC test growth score ([1]; 60% preservative, 48 hour): + | MBC test growth score ([1]; 60% preservative, 72 hour): + | MBC test growth score ([1]; 70% preservative, 8 hour): + | MBC test growth score ([1]; 70% preservative, 24 hour): + | MBC test growth score ([1]; 70% preservative, 48 hour): + | MBC test growth score ([1]; 70% preservative, 72 hour): + | MBC test growth score ([1]; 80% preservative, 8 hour): + | MBC test growth score ([1]; 80% preservative, 24 hour): + | MBC test growth score ([1]; 80% preservative, 48 hour): + | MBC test growth score ([1]; 80% preservative, 72 hour): + | MBC test growth score ([1]; 90% preservative, 8 hour): + | MBC test growth score ([1]; 90% preservative, 24 hour): + | MBC test growth score ([1]; 90% preservative, 48 hour): + | MBC test growth score ([1]; 90% preservative, 72 hour): + | MBC test growth score ([1]; 100% preservative, 8 hour): + | MBC test growth score ([1]; 100% preservative, 24 hour): + | MBC test growth score ([1]; 100% preservative, 48 hour): + | MBC test growth score ([1]; 100% preservative, 72 hour): + | MBC test growth score ([2]; 10% preservative, 8 hour): + | MBC test growth score ([2]; 10% preservative, 24 hour): + | MBC test growth score ([2]; 10% preservative, 48 hour): +/− | MBC test growth score ([2]; 10% preservative, 72 hour): +/− | MBC test growth score ([2]; 20% preservative, 8 hour): + | MBC test growth score ([2]; 20% preservative, 24 hour): + | MBC test growth score ([2]; 20% preservative, 48 hour): +/− | MBC test growth score ([2]; 20% preservative, 72 hour): +/− | MBC test growth score ([2]; 30% preservative, 8 hour): + | MBC test growth score ([2]; 30% preservative, 24 hour): + | MBC test growth score ([2]; 30% preservative, 48 hour): + | MBC test growth score ([2]; 30% preservative, 72 hour): +/− | MBC test growth score ([2]; 40% preservative, 8 hour): + | MBC test growth score ([2]; 40% preservative, 24 hour): + | MBC test growth score ([2]; 40% preservative, 48 hour): + | MBC test growth score ([2]; 40% preservative, 72 hour): +/− | MBC test growth score ([2]; 50% preservative, 8 hour): + | MBC test growth score ([2]; 50% preservative, 24 hour): + | MBC test growth score ([2]; 50% preservative, 48 hour): + | MBC test growth score ([2]; 50% preservative, 72 hour): +/− | MBC test growth score ([2]; 60% preservative, 8 hour): + | MBC test growth score ([2]; 60% preservative, 24 hour): + | MBC test growth score ([2]; 60% preservative, 48 hour): + | MBC test growth score ([2]; 60% preservative, 72 hour): +/− | MBC test growth score ([2]; 70% preservative, 8 hour): + | MBC test growth score ([2]; 70% preservative, 24 hour): + | MBC test growth score ([2]; 70% preservative, 48 hour): + | MBC test growth score ([2]; 70% preservative, 72 hour): +/− | MBC test growth score ([2]; 80% preservative, 8 hour): + | MBC test growth score ([2]; 80% preservative, 24 hour): + | MBC test growth score ([2]; 80% preservative, 48 hour): + | MBC test growth score ([2]; 80% preservative, 72 hour): +/− | MBC test growth score ([2]; 90% preservative, 8 hour): + | MBC test growth score ([2]; 90% preservative, 24 hour): + | MBC test growth score ([2]; 90% preservative, 48 hour): + | MBC test growth score ([2]; 90% preservative, 72 hour): +/− | MBC test growth score ([2]; 100% preservative, 8 hour): + | MBC test growth score ([2]; 100% preservative, 24 hour): + | MBC test growth score ([2]; 100% preservative, 48 hour): + | MBC test growth score ([2]; 100% preservative, 72 hour): +/− | MBC test growth score ([3]; 10% preservative, 8 hour): + | MBC test growth score ([3]; 10% preservative, 24 hour): + | MBC test growth score ([3]; 10% preservative, 48 hour): + | MBC test growth score ([3]; 10% preservative, 72 hour): + | MBC test growth score ([3]; 20% preservative, 8 hour): + | MBC test growth score ([3]; 20% preservative, 24 hour): + | MBC test growth score ([3]; 20% preservative, 48 hour): + | MBC test growth score ([3]; 20% preservative, 72 hour): + | MBC test growth score ([3]; 30% preservative, 8 hour): + | MBC test growth score ([3]; 30% preservative, 24 hour): + | MBC test growth score ([3]; 30% preservative, 48 hour): + | MBC test growth score ([3]; 30% preservative, 72 hour): + | MBC test growth score ([3]; 40% preservative, 8 hour): + | MBC test growth score ([3]; 40% preservative, 24 hour): + | MBC test growth score ([3]; 40% preservative, 48 hour): + | MBC test growth score ([3]; 40% preservative, 72 hour): + | MBC test growth score ([3]; 50% preservative, 8 hour): + | MBC test growth score ([3]; 50% preservative, 24 hour): + | MBC test growth score ([3]; 50% preservative, 48 hour): + | MBC test growth score ([3]; 50% preservative, 72 hour): + | MBC test growth score ([3]; 60% preservative, 8 hour): + | MBC test growth score ([3]; 60% preservative, 24 hour): + | MBC test growth score ([3]; 60% preservative, 48 hour): + | MBC test growth score ([3]; 60% preservative, 72 hour): + | MBC test growth score ([3]; 70% preservative, 8 hour): + | MBC test growth score ([3]; 70% preservative, 24 hour): + | MBC test growth score ([3]; 70% preservative, 48 hour): + | MBC test growth score ([3]; 70% preservative, 72 hour): + | MBC test growth score ([3]; 80% preservative, 8 hour): + | MBC test growth score ([3]; 80% preservative, 24 hour): + | MBC test growth score ([3]; 80% preservative, 48 hour): + | MBC test growth score ([3]; 80% preservative, 72 hour): + | MBC test growth score ([3]; 90% preservative, 8 hour): + | MBC test growth score ([3]; 90% preservative, 24 hour): + | MBC test growth score ([3]; 90% preservative, 48 hour): + | MBC test growth score ([3]; 90% preservative, 72 hour): + | MBC test growth score ([3]; 100% preservative, 8 hour): + | MBC test growth score ([3]; 100% preservative, 24 hour): + | MBC test growth score ([3]; 100% preservative, 48 hour): + | MBC test growth score ([3]; 100% preservative, 72 hour): +
